{
  "source": "paper PMC4381330",
  "about": "“Identification of a novel selective agonist of PPARγ with no promotion of adipogenesis and less inhibition of osteoblastogenesis” (Scientific Reports, 2015)",
  "key": {"[1]": {"molecular_target": "T1, human PPARγ-LBD (coactivator peptide recruitment) (Homo sapiens, UniProt P37231)", "T1 construct": "incubated with GST-fused human PPARγ-LBD, terbium-labeled anti-GST antibody; purchased Invitrogen", "T1 sequence (P37231 238-503 limits assumed)": "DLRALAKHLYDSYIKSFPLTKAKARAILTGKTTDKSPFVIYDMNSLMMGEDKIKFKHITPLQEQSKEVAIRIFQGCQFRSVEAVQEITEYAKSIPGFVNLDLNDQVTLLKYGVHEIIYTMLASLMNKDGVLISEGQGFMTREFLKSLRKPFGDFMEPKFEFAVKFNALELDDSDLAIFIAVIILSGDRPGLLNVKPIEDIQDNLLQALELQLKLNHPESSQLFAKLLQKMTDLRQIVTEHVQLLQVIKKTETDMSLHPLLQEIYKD", "test": "LanthaScreen TR-FRET coactivator peptide recruitment assay", "type": "biochemical", "method": "(§1) PPARγ coregulator peptide interaction assay was performed by the LanthaScreen TR-FRET PPARγ Coactivator Assay Kit (Invitrogen) according to the manufacturer's instructions. Serial concentrations of compounds were incubated with GST-fused human PPARγ-LBD, terbium-labeled anti-GST antibody and fluorescein-labeled peptide for 4 h. The measurement and data calculation were as above."}, "[2]": {"molecular_target": "T2, human PPARγ-LBD (corepressor peptide displacement) (Homo sapiens, UniProt P37231)", "T2 construct": "incubated with GST-fused human PPARγ-LBD, terbium-labeled anti-GST antibody; purchased Invitrogen", "T2 sequence (P37231 238-503 limits assumed)": "T1 sequence (P37231 238-503 limits assumed)", "test": "LanthaScreen TR-FRET corepressor peptide displacement assay", "type": "biochemical", "method": "as §1"}, "[3]": {"test_system": "MC3T3-E1 preosteoblasts", "test": "Osteoblastic differentiation of MC3T3-E1 cells (Alizarin red S, Alp activity)", "type": "cell-based", "settings": "F12016 1, 10, 30 μM", "method": "MC3T3-E1 cells were cultured in α-MEM to confluency in 24-well plates and then cultured in differentiation medium (α-MEM supplemented with 200 μM ascorbic acid and 10 mM β-glycerophosphate) for 7, 14, and 21 days, which was replaced every 3 days. The cells were treated with DMSO, rosiglitazone, or F12016 at the start of differentiation. At day 8, 15 and 22, total RNA was isolated, and real-time PCR was performed as described below.\nMature osteoblasts were stained with Alizarin red S and Alp activity were measured at day 22. In brief, cells were fixed with 75% ethanol and stained with 40 mM Alizarin red S solution (pH 4.1–4.3) for 10 min. For Alp assay, the cells were harvested and sonicated on ice with two 30s-pulses. Supernatant of lysate was incubated with isopyknic 1.0 mg/ml pNPP (Sigma–aldrich) solution (1 M diethanolamine buffer, 0.5 mM magnesium chloride) for 30 min at 37°C. The reaction was measured at 405 nm. Relative ALP activity was normalized to the protein concentration."}},
  "data": [
    {"substance": "2-[2-(1, 2-dimethyl-1H-indol-3-yl)-2-oxo-acetylamino]-benzamide [Compound F12016]", "values": [
      {"measurement": "EC50/IC50 CBP", "setting": "[1]; cofactor peptide CBP", "result": 0.349, "unit": "µM"},
      {"measurement": "Efficacy CBP", "setting": "[1]; cofactor peptide CBP, maximum recruitment relative to rosiglitazone", "result": 10, "unit": "%"},
      {"measurement": "EC50/IC50 PGC-1α", "setting": "[1]; cofactor peptide PGC-1α", "result": 21.81, "unit": "µM"},
      {"measurement": "Efficacy PGC-1α", "setting": "[1]; cofactor peptide PGC-1α, maximum recruitment relative to rosiglitazone", "result": 57, "unit": "%"},
      {"measurement": "EC50/IC50 RAP250", "setting": "[1]; cofactor peptide RAP250", "result": 5.765, "unit": "µM"},
      {"measurement": "Efficacy RAP250", "setting": "[1]; cofactor peptide RAP250, maximum recruitment relative to rosiglitazone", "result": 25, "unit": "%"},
      {"measurement": "EC50/IC50 SRC1", "setting": "[1]; cofactor peptide SRC1", "result": 17.65, "unit": "µM"},
      {"measurement": "Efficacy SRC1", "setting": "[1]; cofactor peptide SRC1, maximum recruitment relative to rosiglitazone", "result": 26, "unit": "%"},
      {"measurement": "EC50/IC50 SRC3", "setting": "[1]; cofactor peptide SRC3", "result": 15.06, "unit": "µM"},
      {"measurement": "Efficacy SRC3", "setting": "[1]; cofactor peptide SRC3, maximum recruitment relative to rosiglitazone", "result": 23, "unit": "%"},
      {"measurement": "EC50/IC50 TIF2", "setting": "[1]; cofactor peptide TIF2", "result": 6.437, "unit": "µM"},
      {"measurement": "Efficacy TIF2", "setting": "[1]; cofactor peptide TIF2, maximum recruitment relative to rosiglitazone", "result": 17, "unit": "%"},
      {"measurement": "EC50/IC50 TRAP220", "setting": "[1]; cofactor peptide TRAP220", "result": 5.132, "unit": "µM"},
      {"measurement": "Efficacy TRAP220", "setting": "[1]; cofactor peptide TRAP220, maximum recruitment relative to rosiglitazone", "result": 17, "unit": "%"},
      {"measurement": "recruitment of SRC 1 and 3 and RAP250 to PPARγ", "setting": "[1]; span over the three cofactors", "result": "22–27 % of rosiglitazone"},
      {"measurement": "EC50/IC50 NCoR", "setting": "[2]; corepressor peptide NCoR", "result": 4.425, "unit": "µM"},
      {"measurement": "Efficacy NCoR", "setting": "[2]; corepressor peptide NCoR, relative to rosiglitazone", "result": 91, "unit": "%"},
      {"measurement": "EC50/IC50 SMRT", "setting": "[2]; corepressor peptide SMRT", "result": 2.861, "unit": "µM"},
      {"measurement": "Efficacy SMRT", "setting": "[2]; corepressor peptide SMRT, relative to rosiglitazone", "result": 58, "unit": "%"},
      {"measurement": "displacement of corepressors NCoR and SMRT", "setting": "[2]; dose-dependent, similar degree as rosiglitazone", "result": "able to efficiently displace corepressors"},
      {"measurement": "alkaline phosphatase (Alp) activity", "setting": "[3]", "result": "less reductions in mineralization and Alp activity"},
      {"measurement": "mineralization (Alizarin Red S)", "setting": "[3]", "result": "less reductions in mineralization"}
    ]}
  ]
}
